# Data published in US11744896B2, “Compositions, use, and method for CDK2-PROTACs for cancer therapy and hearing loss” (Creighton University, priority 2020, dated 2023).
# “Also recorded” adds a separate entry of the source. Where two headings read alike, the source gives them in different places.
# What was measured:
# cochlear explants = details: cited from earlier work
# [1] = test system: cisplatin-induced hearing loss; details: mouse; previous work; cited from earlier work
# neuromast hair cells = assay: Zebrafish neuromast hair cell protection from kainic acid; assay type: in vivo, zebrafish (Danio rerio); details: kainic acid 300 μM for 50 min after pre-treatment
# Experimental: Four days post-fertilization (dpf) zebrafish (Danio rerio) larvae were obtained by pair mating of adult TuAB fish maintained at Creighton University by standard methods approved by the Institutional Animal Care and Use Committee. Experimental fish were maintained at 28.5° C. in E3 media (5 mM NaCl, 0.17 mM KCl, 0.33 mM CaCl2 and […] MgSO4, pH 7.2) until the day of the experiment.
# (§1) The next day fish were transferred to a fresh solution of kainic acid 300 μM for 50 min, led recover in fresh E3 media for 2 hours, and fixed with 4% paraformaldehyde. Animals were processed for immunofluorescence analysis as described for the cisplatin treatments. After the 24 hours incubation with PROTAC-8 and before the incubation with the ototoxin, some fish were collected for immunoblot analysis of CDK2 abundance.
# (§2) Control animals were exposed to 0.1% DMSO in E3 media. Images were taken employing a Zeiss LSM 710 confocal microscope with a 63× oil objective.
# For the screening of the effect of PROTAC-8, neuromast hair cell counts were performed manually, employing a Zeiss AxioSkop 2 fluorescence microscope with a 40× oil objective. Confocal imaging was performed using a Zeiss LSM 710 confocal laser scanning image system with a 63× oil objective. Images were captured at room temperature with automatically set sectioning. The acquired images were processed with ZEN black edition software. […]
# [2] = test system: zebrafish lateral line neuromast hair cells; assay: Zebrafish neuromast hair cell protection from cisplatin; assay type: in vivo; details: for protection of zebrafish lateral line neuromast hair cells from cisplatin toxicity: pre-incubation, then co-incubation with cisplatin for 6 hours
# Source text: Four days post-fertilization (dpf) zebrafish (Danio rerio) larvae were obtained by pair mating of adult TuAB fish maintained at Creighton University by standard methods approved by the Institutional Animal Care and Use Committee.
# Animals were immunostained for the hair cell marker, otoferlin (HCS-1, DSHB), and process for fluorescence microscopy. Otic, middle, and opercular neuromasts were identified, and hair cells were manually counted using a Zeiss AxioSkop 2 fluorescence microscope with a 40× oil objective.
# as §2
# For the screening of the effect of PROTAC-8, neuromast hair cell counts were performed manually, employing a Zeiss AxioSkop 2 fluorescence microscope with a 40× oil objective. Confocal imaging was performed using a Zeiss LSM 710 confocal laser scanning image system with a 63× oil objective. Images were captured at room temperature with automatically set sectioning. The acquired images were processed with ZEN black edition software. Z-stack images are presented as flat Z-projections.
# [3] = test system: zebrafish lateral line neuromast hair cells; details: zebrafish lateral line neuromasts, background statement, cited from earlier work
# CDK2 [4] = assay: CDK2 abundance in total zebrafish lysates (immunoblot); assay type: in vivo, zebrafish (Danio rerio); details: at concentrations of 0.1 nM and 1 μM
# Experimental: as §1
# (§3) Specific bands were quantified using ImageJ (NIH).
# Further to find the effect of AZD5438-PROTAC 8 (Example 2) in protecting zebrafish hair cells from cisplatin otoxicity, zebrafish were pre-incubated with AZD5438-PROTAC 8 and then co-incubated with cisplatin for six hours. […] To check the degradation of CDK2 in zebrafish, fish were treated with AZD5438-PROTAC 8 in different concentration and total zebrafish lysates used for immunoblots (FIG. 12B). AZD5438-PROTAC 8 degrades CDK2 at concentrations of 0.1 nM and 1 μM (FIGS. 12B-12C).
# CDK2 [5] = target: CDK2 (Mus musculus, UniProt P97377); details: HEI-OC1 cells; for CDK2 degradation (immunoblot): 0.1 nM to 1 μM
# Experimental: HEI-OC1 cells were maintained in DMEM with 10% of Fetal bovine serum at 33° C. in a 10% CO2 atmosphere. […] Cells were harvested in RIPA buffer (NaCl 150 mM, Tris-HCl 50 mM, Nonidet-40 1%, Sodium deoxycholate 0.5%, SDS 0.1%, pH 7.4) containing protease (Sigma-Aldrich, MO P8340) and phosphatase inhibitors (ThermoFisher, CA, A32957) for immunoblot analysis.
# Lysates were prepared after a 24 hours incubation and processed for Western blot analysis.
# Membranes were blocked for 1 hour at room temperature with 3% milk followed by overnight incubation with the primary antibody in 3% milk. After several washes and the secondary incubation for 1 hour, membranes were developed employing an iBright FL1000 (ThermoFisher, CA). Immunoblots were stripped and probed for β-actin as the loading control. Specific bands were quantified using ImageJ (NIH).
# CDK1, CDK5, CDK7 or CDK9 = assay: Abundance of closely related CDKs in HEI-OC1 cells (immunoblot); assay type: cell-based; details: 24 hours
# Source text: as §3
# CDK2 [6] = target: T1, CDK2 (Homo sapiens, UniProt P24941); assay: CDK2 degradation in HeLa cell line (immunoblot); assay type: cell-based; details: HeLa cells incubated overnight, different concentrations
# T1 construct: endogenous in cells; host or cells: HeLa
# Experimental: (§4) To test the efficacy of the synthesized AZD5438-PROTACs, HeLa cells were incubated overnight with different concentrations of AZD5438-PROTAC Examples 1, 2, 5, and 6.
# CDK1 = target: T2, CDK1 (Homo sapiens, UniProt P06493); assay: CDK1 degradation in HeLa cell line (immunoblot); assay type: cell-based; details: HeLa cells incubated overnight
# T2 construct: endogenous in cells; host or cells: HeLa
# T2 sequence (P06493 whole entry): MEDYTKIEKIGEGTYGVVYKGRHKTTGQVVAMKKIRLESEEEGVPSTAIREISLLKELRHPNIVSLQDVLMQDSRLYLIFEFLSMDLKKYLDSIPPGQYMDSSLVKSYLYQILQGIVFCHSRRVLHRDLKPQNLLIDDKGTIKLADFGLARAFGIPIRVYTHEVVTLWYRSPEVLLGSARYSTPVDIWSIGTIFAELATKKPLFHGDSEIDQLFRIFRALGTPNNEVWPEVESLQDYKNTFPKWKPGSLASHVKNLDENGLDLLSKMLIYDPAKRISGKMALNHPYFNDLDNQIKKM
# Experimental: as §4
# CDK9 = target: T3, CDK9 (Homo sapiens, UniProt P50750); assay: CDK9 degradation in HeLa cell line (immunoblot); assay type: cell-based; details: HeLa cells incubated overnight
# T3 construct: endogenous in cells; host or cells: HeLa
# T3 sequence (P50750 whole entry): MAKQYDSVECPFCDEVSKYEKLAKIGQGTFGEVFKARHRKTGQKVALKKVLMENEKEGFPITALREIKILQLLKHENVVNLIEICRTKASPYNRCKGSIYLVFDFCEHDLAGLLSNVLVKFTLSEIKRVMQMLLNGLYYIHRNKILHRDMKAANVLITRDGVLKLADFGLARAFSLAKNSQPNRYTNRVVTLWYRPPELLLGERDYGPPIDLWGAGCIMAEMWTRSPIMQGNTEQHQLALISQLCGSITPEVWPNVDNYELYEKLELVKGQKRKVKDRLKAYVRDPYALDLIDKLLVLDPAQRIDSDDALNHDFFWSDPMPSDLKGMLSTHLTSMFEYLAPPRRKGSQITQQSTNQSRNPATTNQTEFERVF
# Experimental: as §4
CDK2 degradation (immunoblot) (CDK2 [5]; 24 hours),Compound,protection against cisplatin-induced ototoxicity / hearing loss in vivo [1],protection of neuromast hair cells from kainic acid damage (neuromast hair cells),CDK2 degradation in zebrafish (CDK2 [4]),"degradation / abundance of closely related CDKs (CDK1, CDK5, CDK7, CDK9); selectivity (CDK1, CDK5, CDK7 or CDK9)",CDK2 degradation (immunoblot) (CDK2 [6]),further results
,Cc1ncc(-c2ccnc(Nc3ccc(S(C)(=O)=O)cc3)n2)n1C(C)C [AZD5438],best protection against cisplatin-induced ototoxicity; also recorded: fully protects against cisplatin-induce hearing loss in mice by local delivery; also recorded: can prevent cisplatin-induced ototoxicity in vivo; also recorded: hair cell loss was reduced,able to protect the zebrafish lateral line neuromasts from cisplatin and kainic acid damage,without CDK2 degradation,,,"IC50 (cochlear explants; cochlear explants, cisplatin, read-out: IC50, protection against cisplatin toxicity in cochlear explants): 5 nM; protection against cisplatin-induced ototoxicity in mouse cochlear explants (cochlear explants; previous study): best protection against cisplatin-induced ototoxicity; protection of zebrafish lateral line neuromast hair cells from cisplatin toxicity [2]: able to protect the zebrafish lateral line neuromasts from cisplatin and kainic acid damage; protection of zebrafish lateral line against cisplatin ototoxicity (earlier studies) [3]: hair cell loss was reduced; protection of zebrafish lateral line against cisplatin ototoxicity (earlier studies) ([3]; listed as ACD5438): protects zebrafish lateral line against cisplatin ototoxicity"
did not show any CDK2 degradation,"O=C1CCC(N2C(=O)c3cccc(NCCOCCOCCOCCn4cc(CO[C@H]5CC[C@H](NC(=O)c6n[nH]cc6NC(=O)c6c(F)cccc6F)CC5)nn4)c3C2=O)C(=O)N1 (some centres unmarked) [Example 3, 4-(2,6-difluorobenzamido)-N-((1r,4r)-4-((1-(2-(2-(2-(2-((2-(2,6-dioxopiperidin-3-yl)-1,3-dioxoisoindolin-4-yl)amino)ethoxy)ethoxy)ethoxy)ethyl)-1H-1,2,3-triazol-4-yl)methoxy)cyclohexyl)-1H-pyrazole-3-carboxamide]",,,,nor changes in the abundance of any of the closely related CDKs,,
did not show any CDK2 degradation,"Cc1ncsc1-c1ccc(CNC(=O)[C@@H]2C[C@@H](O)CN2C(=O)[C@@H](NC(=O)COCCn2cc(CO[C@H]3CC[C@H](NC(=O)c4n[nH]cc4NC(=O)c4c(F)cccc4F)CC3)nn2)C(C)(C)C)cc1 [Example 4, 4-(2,6-difluorobenzamido)-N-((1S,4r)-4-((1-(2-(2-(((S)-1-((2S,4R)-4-hydroxy-2-((4-(4-methylthiazol-5-yl)benzyl)carbamoyl)pyrrolidin-1-yl)-3,3-dimethyl-1-oxobutan-2-yl)amino)-2-oxoethoxy)ethyl)-1H-1,2,3-triazol-4-yl)methoxy)cyclohexyl)-1H-pyrazole-3-carboxamide]",,,,nor changes in the abundance of any of the closely related CDKs,,
did not show any CDK2 degradation,"Cc1ncc(-c2ccnc(Nc3ccc(S(=O)(=O)CCCc4cn(CCOCCOCCOCCNc5cccc6c5C(=O)N(C5CCC(=O)NC5=O)C6=O)nn4)cc3)n2)n1C(C)C (centres unmarked) [Example 1, 2-(2,6-dioxopiperidin-3-yl)-4-((2-(2-(2-(2-(4-(3-((4-((4-(1-isopropyl-2-methyl-1H-imidazol-5-yl)pyrimidin-2-yl)amino)phenyl)sulfonyl)propyl)-1H-1,2,3-triazol-1-yl)ethoxy)ethoxy)ethoxy)ethyl)amino)isoindoline-1,3-dione]",,,,nor changes in the abundance of any of the closely related CDKs,only the treatment with AZD5438-PROTAC-8 resulted in the degradation of CDK2,
,"Cc1ncsc1-c1ccc(CNC(=O)[C@@H]2C[C@@H](O)CN2C(=O)[C@@H](NC(=O)COCCn2cc(CCCS(=O)(=O)c3ccc(Nc4nccc(-c5cnc(C)n5C(C)C)n4)cc3)nn2)C(C)(C)C)cc1 [Example 2, (2S,4R)-4-hydroxy-1-((S)-2-(2-(2-(4-(3-((4-((4-(1-isopropyl-2-methyl-1H-imidazol-5-yl)pyrimidin-2-yl)amino)phenyl)sulfonyl)propyl)-1H-1,2,3-triazol-1-yl)ethoxy)acetamido)-3,3-dimethylbutanoyl)-N-(4-(4-methylthiazol-5-yl)benzyl)pyrrolidine-2-carboxamide]",,able to protect the zebrafish lateral line neuromasts from cisplatin and kainic acid damage,degrades CDK2,selective for CDK2 degradation,resulted in the degradation of CDK2,"CDK1 degradation (immunoblot) (CDK1): No significant degradation; protection of zebrafish hair cells from cisplatin ototoxicity (FIG. 11A) ([2]; five-day post-fertilization fish, 1 hour pre-incubation, 6 hours co-incubation with cisplatin 400 μM): protects zebrafish hair cells from cisplatin otoxicity; protection of zebrafish lateral line neuromast hair cells from cisplatin toxicity ([2]; listed as AZD5438-PROTAC 8): significantly protects the zebrafish lateral line neuromasts from cisplatin toxicity; protection of zebrafish lateral line neuromast hair cells from cisplatin toxicity ([2]; listed as PROTAC-8): able to protect the zebrafish lateral line neuromasts from cisplatin and kainic acid damage; toxic effect of PROTAC alone on neuromast hair cells ([2]; zebrafish, without cisplatin (FIG. 11A)): did not show any toxic effect; CDK2 degradation on co-incubation with proteasome inhibitor MG-132 (CDK2 [5]; 100 nM PROTAC-8 and 300 nM MG-132, 24 hours): abolished CDK2 degradation; CDK2 degradation (CDK2 [5]; 24 hours, 100 nM concentration): around 50%; DC50 (CDK2 [5]; read-out: half maximal degradation concentration (DC50), CDK2 degradation): > 1000 nM; CDK9 degradation (immunoblot) (CDK9): No significant degradation"
,O=C(NC1CCNCC1)c1n[nH]cc1NC(=O)c1c(Cl)cccc1Cl [AT7519],can prevent cisplatin-induced ototoxicity in vivo,,,,,
